Experimental data reported in PubChem BioAssay (NCI).
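In this assay, cells in 96-well plates receive the compound at five concentrations for 48 hours. Endpoints are linearly interpolated between the surrounding concentrations. Here, GI50 denotes the concentration required for 50% inhibition of growth. TGI marks complete inhibition of growth.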

Columns and labels:
Assay in all cases: NCI anticancer screen, dose series, 48 h
[1] = system: HOP-62 NSCLC
[2] = system: HOP-92 NSCLC
[3] = system: M14 melanoma
[4] = system: OVCAR-3 ovarian
[5] = system: OVCAR-8 ovarian
[6] = system: SK-MEL-5 melanoma
[7] = system: KM20L2 colon
[8] = system: M19-MEL melanoma
[9] = system: XF 498 CNS
[10] = system: HOP-18 NSCLC

SMILES | GI50 [1] [µM] | TGI [1] [µM] | GI50 [2] [µM] | TGI [2] [µM] | GI50 [3] [µM] | TGI [3] [µM] | GI50 [4] [µM] | TGI [4] [µM] | GI50 [5] [µM] | TGI [5] [µM] | GI50 [6] [µM] | TGI [6] [µM] | TGI [7] [µM] | TGI [8] [µM] | TGI [9] [µM] | TGI [10] [µM] | GI50 [7] [µM] | GI50 [8] [µM]
CCOC(=O)CCC(NC(=O)c1ccc(Nc2nc3cc(N)cc(N)c3nc2-c2ccccc2)cc1)C(=O)OCC (centres undefined) | > 44.1 | > 63 | 10.8 | 29.7 | 11.9 | > 24.4 | 13.4 | 39.4 | 47.1 | > 100 | 12.6 | 44.6 |  |  |  |  |  | 
Nc1ccc(C(=O)N/C(=C\c2ccc3c(c2)OCO3)c2nc3ccc4c(c3[nH]2)C(=O)c2ccccc2C4=O)cc1 |  | > 100 |  | 95.7 |  | > 100 |  | > 100 |  | > 100 |  | > 100 | > 100 | > 100 | > 100 |  |  | 
CC[C@@]1(O)C(=O)N(CCN(C)C)Cc2c1cc1n(c2=O)Cc2cc3ccccc3nc2-1 | 5.21 | > 100 | > 25.9 | > 100 | 9.31 | > 100 | > 100 | > 100 | 12.5 | > 100 | > 25.2 | > 56.1 |  |  |  |  |  | 
CC(C)C(NCc1c2ccccc2nc2ccccc12)C(=O)O (centres undefined) |  | > 100 |  | 61.9 |  | > 100 |  | > 100 |  | > 100 |  | > 100 | > 100 | > 100 | 62.4 |  |  | 
O=C1/C(=C/c2ccccc2)CN(C(=O)Oc2ccccc2)C/C1=C\c1ccccc1 |  | 39.7 |  |  |  | > 100 |  | > 100 |  | > 100 |  | > 100 | > 100 | > 100 |  | > 100 |  | 
CCCN(CCC)c1c([N+](=O)[O-])cc(C(N)=O)cc1[N+](=O)[O-] |  |  |  |  |  | > 100 |  | > 100 |  | > 100 |  | 53.8 |  | > 100 | > 100 |  |  | 
CCOC(=O)Nc1ccc2nc(Sc3ccc(Cl)cc3)sc2c1 | 9.43 | > 100 | 7.98 | 65.4 | 1.66 | 24.6 | 1.89 | > 32.6 | 7.72 | 70.4 | 1.18 | 5.07 |  |  |  |  |  | 
COc1ccccc1NC(=O)NS(=O)(=O)c1ccccc1 |  | > 100 |  | > 100 |  | > 100 |  |  |  | > 100 |  | > 100 | > 100 | > 100 |  | > 100 |  | 
CC(C)=CCCC1(C)C=Cc2c(ccc3c2[nH]c2cc(O)c(C)cc23)O1 (centres undefined) | 4.74 | 8.71 | 4.22 | 10.2 | 3.92 | 7.44 |  | 9.07 |  | 7.49 | 4.85 | 9.31 | 10.4 | 16.8 | > 2.5 |  | 5.22 | 6.99
N#CSc1cc(-c2nc3ccccc3o2)ccc1N | 52.7 | > 100 | 22.4 | 64.2 | 26.2 | 80.4 | 17.9 | > 56.7 | 2.79 | > 32.5 | 11.1 | 29.2 |  |  |  |  |  | 
Cc1cncc2cccc(S(=O)(=O)N3CCCNC[C@@H]3C)c12 | 11.5 | > 100 | 0.108 | > 100 | > 93.4 | > 100 | 58.9 | > 100 | 38.9 | > 100 | > 64.1 | > 100 |  |  |  |  |  | 
c1ccc(-c2nn(-c3ccccc3)[n+](-c3ccccc3-c3ccccc3)n2)cc1 | 2.1 | > 42.2 | 0.775 | 5.48 | 1.63 | 16.6 | 0.416 | 15.5 | 0.757 | 12.5 | 0.409 | 2.2 |  |  |  |  |  | 
C=C(C)[C@@H]1CC[C@@H]2C(=CC[C@]3(C)C([C@H](C)CC/C=C(/C)C(=O)O)CC[C@@]23C)[C@@]1(C)CCC(=O)O (some centres undefined) |  | > 100 |  | 43 |  | > 100 |  | 44.6 |  | > 100 |  | 41.2 |  |  |  |  |  | 
NC(=O)COc1ccc(Br)cc1Br |  | > 100 |  | > 100 |  | > 100 |  | > 100 |  | > 100 |  | > 100 | > 100 | > 100 |  | > 100 |  | 
COc1cc(C2CC(c3cc(Cl)c(C)cc3O)=NN2c2ccc(S(N)(=O)=O)cc2)cc(OC)c1OC (centres undefined) | 2.1 | 4.56 | 2.14 | 6.99 | 2.02 | 4.29 | 2.19 | 4.77 | 3.92 | 12.9 | 2.02 | 4.18 |  |  |  |  |  | 
